Test system: ALT or AST
Test: Example 5: postbaseline hepatic laboratory parameter values of clinical interest
Assay type: in vivo, human
Conditions: safety population; for Participants with Concurrent Elevations ALT or AST >=3 * ULN AND Bilirubin Total >=1.5 * ULN, n/N1 / Participants with Concurrent Elevations ALT or AST >=3 * ULN AND Bilirubin Total >=2 * ULN, n/N1 / Participants with Potential Hy's Law ALT or AST >=3 * ULN AND Bilirubin Total >=2 * ULN AND ALP <2 * ULN, n/N1: same day
Description: In a multicenter, randomized, double-blind, placebo-controlled, parallel-group study designed to evaluate the efficacy, safety, and tolerability of multiple doses and doses regimens of atogepant for the prevention of migraine. The patients were randomized (2:1:2:1:2:1) to 1 of 6 treatment groups: placebo, atogepant 10 mg QD, atogepant 30 mg QD, atogepant 30 mg BID, atogepant 60 mg QD, and atogepant 60 mg BID.
A total of 834 patients were randomized to double-blind treatment (ITT population), and 825 patients took at least 1 dose of double-blind IP (safety population). […] The primary efficacy variable was the change from baseline in mean monthly migraine/probable migraine headache days across the 12-week treatment period. The secondary efficacy variables were the change from baseline in mean monthly headache days across the 12-week treatment period, proportion of patients with at least a 50% reduction in mean monthly migraine/probable migraine headache days across the 12-week treatment period, and the change from baseline in mean monthly acute medication use days across the 12-week treatment period.

## C[C@@H]1[C@H](c2c(F)ccc(F)c2F)C[C@H](NC(=O)c2cnc3c(c2)C[C@@]2(C3)C(=O)Nc3ncccc32)C(=O)N1CC(F)(F)F [atogepant]
Atogepant 10 mg QD (N = 93)
  Participants with postbaseline ALT or AST (U/L) >=1 * ULN, (%): (18.5) %
  Participants with postbaseline ALT or AST (U/L) >=1 * ULN, n/N1: 17/92
  Participants with postbaseline ALT or AST (U/L) >=1.5 * ULN, (%): (4.3) %
  Participants with postbaseline ALT or AST (U/L) >=1.5 * ULN, n/N1: 4/92
  Participants with postbaseline ALT or AST (U/L) >=2 * ULN, (%): (4.3) %
  Participants with postbaseline ALT or AST (U/L) >=2 * ULN, n/N1: 4/92
  Participants with postbaseline ALT or AST (U/L) >=3 * ULN, (%): (2.2) %
  Participants with postbaseline ALT or AST (U/L) >=3 * ULN, n/N1: 2/92
  Participants with postbaseline ALT or AST (U/L) >=5 * ULN, n/N1: 0
  Participants with postbaseline ALT or AST (U/L) >=10 * ULN, n/N1: 0
  Participants with postbaseline ALT or AST (U/L) >=20 * ULN, n/N1: 0
  Participants with Concurrent Elevations ALT or AST >=3 * ULN AND Bilirubin Total >=1.5 * ULN, n/N1: 0
  Participants with Concurrent Elevations ALT or AST >=3 * ULN AND Bilirubin Total >=2 * ULN, n/N1: 0
  Participants with Potential Hy's Law ALT or AST >=3 * ULN AND Bilirubin Total >=2 * ULN AND ALP <2 * ULN, n/N1: 0
Atogepant 30 mg BID (N = 86)
  Participants with postbaseline ALT or AST (U/L) >=1 * ULN, (%): (13.1) %
  Participants with postbaseline ALT or AST (U/L) >=1 * ULN, n/N1: 11/84
  Participants with postbaseline ALT or AST (U/L) >=1.5 * ULN, (%): (2.4) %
  Participants with postbaseline ALT or AST (U/L) >=1.5 * ULN, n/N1: 2/84
  Participants with postbaseline ALT or AST (U/L) >=2 * ULN, (%): (2.4) %
  Participants with postbaseline ALT or AST (U/L) >=2 * ULN, n/N1: 2/84
  Participants with postbaseline ALT or AST (U/L) >=3 * ULN, (%): (1.2) %
  Participants with postbaseline ALT or AST (U/L) >=3 * ULN, n/N1: 1/84
  Participants with postbaseline ALT or AST (U/L) >=5 * ULN, n/N1: 0
  Participants with postbaseline ALT or AST (U/L) >=10 * ULN, n/N1: 0
  Participants with postbaseline ALT or AST (U/L) >=20 * ULN, n/N1: 0
  Participants with Concurrent Elevations ALT or AST >=3 * ULN AND Bilirubin Total >=1.5 * ULN, n/N1: 0
  Participants with Concurrent Elevations ALT or AST >=3 * ULN AND Bilirubin Total >=2 * ULN, n/N1: 0
  Participants with Potential Hy's Law ALT or AST >=3 * ULN AND Bilirubin Total >=2 * ULN AND ALP <2 * ULN, n/N1: 0
Atogepant 30 mg QD (N = 183)
  Participants with postbaseline ALT or AST (U/L) >=1 * ULN, (%): (17.8) %
  Participants with postbaseline ALT or AST (U/L) >=1 * ULN, n/N1: 32/180
  Participants with postbaseline ALT or AST (U/L) >=1.5 * ULN, (%): (7.2) %
  Participants with postbaseline ALT or AST (U/L) >=1.5 * ULN, n/N1: 13/180
  Participants with postbaseline ALT or AST (U/L) >=2 * ULN, (%): (3.3) %
  Participants with postbaseline ALT or AST (U/L) >=2 * ULN, n/N1: 6/180
  Participants with postbaseline ALT or AST (U/L) >=3 * ULN, (%): (0.6) %
  Participants with postbaseline ALT or AST (U/L) >=3 * ULN, n/N1: 1/180
  Participants with postbaseline ALT or AST (U/L) >=5 * ULN, n/N1: 0
  Participants with postbaseline ALT or AST (U/L) >=10 * ULN, n/N1: 0
  Participants with postbaseline ALT or AST (U/L) >=20 * ULN, n/N1: 0
  Participants with Concurrent Elevations ALT or AST >=3 * ULN AND Bilirubin Total >=1.5 * ULN, n/N1: 0
  Participants with Concurrent Elevations ALT or AST >=3 * ULN AND Bilirubin Total >=2 * ULN, n/N1: 0
  Participants with Potential Hy's Law ALT or AST >=3 * ULN AND Bilirubin Total >=2 * ULN AND ALP <2 * ULN, n/N1: 0
Atogepant 60 mg BID (N = 91)
  Participants with postbaseline ALT or AST (U/L) >=1 * ULN, (%): (10.2) %
  Participants with postbaseline ALT or AST (U/L) >=1 * ULN, n/N1: 9/88
  Participants with postbaseline ALT or AST (U/L) >=1.5 * ULN, (%): (1.1) %
  Participants with postbaseline ALT or AST (U/L) >=1.5 * ULN, n/N1: 1/88
  Participants with postbaseline ALT or AST (U/L) >=2 * ULN, (%): (1.1) %
  Participants with postbaseline ALT or AST (U/L) >=2 * ULN, n/N1: 1/88
  Participants with postbaseline ALT or AST (U/L) >=3 * ULN, (%): (1.1) %
  Participants with postbaseline ALT or AST (U/L) >=3 * ULN, n/N1: 1/88
  Participants with postbaseline ALT or AST (U/L) >=5 * ULN, n/N1: 0
  Participants with postbaseline ALT or AST (U/L) >=10 * ULN, n/N1: 0
  Participants with postbaseline ALT or AST (U/L) >=20 * ULN, n/N1: 0
  Participants with Concurrent Elevations ALT or AST >=3 * ULN AND Bilirubin Total >=1.5 * ULN, n/N1: 0
  Participants with Concurrent Elevations ALT or AST >=3 * ULN AND Bilirubin Total >=2 * ULN, n/N1: 0
  Participants with Potential Hy's Law ALT or AST >=3 * ULN AND Bilirubin Total >=2 * ULN AND ALP <2 * ULN, n/N1: 0
Atogepant 60 mg QD (N = 186)
  Participants with postbaseline ALT or AST (U/L) >=1 * ULN, (%): (13.8) %

From patent US12383545B1, “Treatment of migraine” (priority 2018, dated 2025)
